Patent US20220153746A1, “NITROGEN OXIDE-DONATING PDE-5 AND/OR PDE-6 INHIBITOR COMPOUNDS, AND USES THEREOF” (ILDONG PHARMACEUTICAL CO., LTD., priority 2020, published 2022)
Where two headings read alike, the source gives them in different places.

Test: PK Phase (Group 2): plasma concentrations and pharmacokinetics of Compound 18 and its metabolite Compound 4 after once daily ocular instillation of Compound 18 nanosuspension for 7 days
Type: in vivo, New Zealand white rabbits
Details: male, New Zealand white, rabbit, plasma; for concentration at 8 h / concentration at 24 h: 0.821 mg/kg/day; for Cmax / Tmax / AUC(0-t): topical or ocular, 0.8 mg/kg; for AUC(0-t): read-out: AUC0-24
Description: This example illustrates the procedures and results for the levels of Compound 18 and its metabolite Compound 4 in plasma and ocular tissues of normotensive rabbits following ocular instillation of Compound 18 once daily for 7 consecutive days.
Twenty five (25) male New Zealand white rabbits were divided into 5 groups of varying amounts of animals per group.
The Test article, Compound 18 was formulated as a 2% nanosuspension in DI water containing 0.2% PS80 (polyoxyethylenesorbitan, monooleate (Tween 80)) and 0.4% HPMC (hydroxypropylmethylcellulose) at pH 6.77. Referred to herein as “Compound 18 nanosuspension.”
The study consisted of three groups (Groups 1-3) of 19 male rabbits (NZW) that underwent once daily morning ocular installation (1 eyedrop) for 7 consecutive days (Day 0-6). Groups 4-5 each consisted of 3 male rabbits (NZW) that were not dosed.
Blood samples (1 mL) were collected from the jugular vein at the intervals set out below for each group. The samples were then inverted several times following collection and held on wet ice until centrifuged. Samples were centrifuged within 60 minutes of collection under refrigeration (set at 5° C. for 10 minutes at 2000 g. […]
Plasma and tissue samples from treated animals (Groups 1-3) were analyzed for Compound 18 and its metabolite Compound 4 concentrations by LC-MS/MS.
Pharmacokinetic analysis was conducted using WinNonlin Version 6.2.1 (Pharsight, Mountain View, Calif.), operating as a validated software system. Noncompartmental analysis was conducted using the extravascular administration model for ocular instillation dosing.
The peak plasma concentration, time to achieve peak plasma concentration, half-life, and area under the plasma concentration-time curve (Cmax, Tmax, T1/2, and AUC) were calculated from the PK phase individual animal plasma concentrations for each sampling time/dose group for Compound 18 and its metabolite Compound 4.
BA Assay: Quantitation Range 0.05 to 100 ng/mL for Compound 18, 0.15 to 100 ng/mL for Compound 4.
Plasma calibration standards (PLSTD-A) with Compound 18 concentrations ranging from 0.0500 to 100 ng/mL were prepared by spiking control rabbit plasma with appropriate calibration curve spiking solutions (SS-A). PLQC-A samples with concentrations of 0.150, 5.00, 50.0, and 80.0 ng/mL were prepared by spiking control rabbit plasma with appropriate SS-A-QC spiking solutions.
Plasma calibration standards (PLSTD-B) with Compound 4 concentrations ranging from 0.150 to 100 ng/mL were prepared by spiking control rabbit plasma with appropriate calibration curve spiking solutions (SS-B). PLQC-B samples with concentrations of 0.450, 5.00, 50.0, and 80.0 ng/mL were prepared by spiking control rabbit plasma with appropriate SS-B-QC spiking solutions. PLQC-B-Dil samples at 800 ng/mL were prepared by spiking control rabbit plasma with the SS-B-QC-Dil spiking solution at 16,000 ng/mL, and then diluted 20× with control rabbit plasma prior to extraction.
1. Thaw plasma standards, plasma QC samples, ocular tissue QC samples, incurred plasma samples and ocular tissue samples (AH/VH) (if applicable) on wet ice. Control plasma can be thawed in tepid water. Vortex before taking aliquots.
2. Pipet 50 μL of water for Reagent Blank, 50 μL of control plasma for Double Blank and Blank, 50 μL of pre-spiked plasma for Standards and QC samples, 50 μL of incurred plasma samples (if applicable) into a 96 well plate.
5. Add 200 μL of working internal standard (WIS) solution to all remaining samples.
6. Seal the plate and vortex for approximately 5 minutes. Centrifuge the plate at 3500 rpm for 10 minutes at ˜4° C.
7. Transfer ˜200 μL of each sample supernatant into the appropriate wells of a 96 well plate. Submit for LC MS/MS analysis.
A total of 25 rabbits were used for this study, including 19 treated rabbits and 6 control rabbits. […]

[1] = other: ocular instillation (eye drop), Mean of 4 animals, BQL set to 0, read-out: Day 7 Compound 18 Plasma Concentration
[2] = other: ocular instillation (eye drop), animal 207666, read-out: Day 7 Compound 18 Plasma Concentration
[3] = other: ocular instillation, 0.8 mg/kg/day, Mean of 4 animals, BQL set to 0, read-out: Day 1 Compound 18 Plasma Concentration
[4] = other: ocular instillation, 0.8 mg/kg/day, animal 207666, read-out: Day 1 Compound 18 Plasma Concentration
[5] = other: ocular instillation, 0.8 mg/kg/day, animal 207667, read-out: Day 1 Compound 18 Plasma Concentration
[6] = Day 1, Compound 18 0.8 mg/kg ocular instillation, Mean, n=4
[7] = Day 1, Compound 18 0.8 mg/kg ocular instillation, animal 207664
[8] = Day 1, Compound 18 0.8 mg/kg ocular instillation, animal 207665
[9] = Day 1, Compound 18 0.8 mg/kg ocular instillation, animal 207666
[10] = Day 1, Compound 18 0.8 mg/kg ocular instillation, animal 207667
[11] = Day 7, Compound 18 0.8 mg/kg ocular instillation, Mean, n=4
[12] = Day 7, Compound 18 0.8 mg/kg ocular instillation, animal 207664
[13] = Day 7, Compound 18 0.8 mg/kg ocular instillation, animal 207665
[14] = Day 7, Compound 18 0.8 mg/kg ocular instillation, animal 207666
[15] = Day 7, Compound 18 0.8 mg/kg ocular instillation, animal 207667

Question: Which results are given for CCCc1nn(C)c2c(=O)[nH]c(-c3cc(S(=O)(=O)N4CC(CCCO[N+](=O)[O-])C4)ccc3OCC)nc12 [Compound 18, 3-(1-((4-ethoxy-3-(1-methyl-7-oxo-3-propyl-6,7-dihydro-1H-pyrazolo[4,3-d]pyrimidin-5-yl)phenyl)sulfonyl)azetidin-3-yl)propyl nitrate]?
Answer: concentration at 8 h [1]: 0.0279 ng/mL; concentration at 8 h (other: ocular instillation (eye drop), animal 207665, read-out: Day 7 Compound 18 Plasma Concentration): 0.0505 ng/mL; concentration at 8 h [2]: 0.0611 ng/mL; concentration at 24 h (other: ocular instillation (eye drop), Mean of 4 animals, BQL set to 0, read-out: Day 1 Compound 18 Plasma Concentration): 0.0171 ng/mL; concentration at 24 h [1]: 0.0401 ng/mL; concentration at 24 h (other: ocular instillation (eye drop), animal 207666, read-out: Day 1 Compound 18 Plasma Concentration): 0.0682 ng/mL; concentration at 24 h [2]: 0.0989 ng/mL; concentration at 24 h (other: ocular instillation (eye drop), animal 207667, read-out: Day 7 Compound 18 Plasma Concentration): 0.0614 ng/mL; concentration at 0.5 h (other: ocular instillation (eye drop), 2 mg/day, animal 207664, read-out: Day 1 Compound 18 Plasma Concentration): 0.0863 ng/mL; concentration at 0.5 h [3]: 0.161 ng/mL; concentration at 0.5 h (other: ocular instillation, 0.8 mg/kg/day, animal 207665, read-out: Day 1 Compound 18 Plasma Concentration): 0.0721 ng/mL; concentration at 0.5 h [4]: 0.313 ng/mL; concentration at 0.5 h [5]: 0.171 ng/mL; concentration at 1 h [3]: 0.0601 ng/mL; concentration at 1 h [4]: 0.183 ng/mL; concentration at 1 h [5]: 0.0575 ng/mL; Cmax [6]: 0.161 ± 0.111 ng/mL; Tmax [6]: 30 min; AUC(0-t) [6]: 0.311 ± 0.488 ng·h/mL; Cmax [7]: 0.0863 ng/mL; Tmax [7]: 30 min; AUC(0-t) [7]: 0.0216 ng·h/mL; Cmax [8]: 0.0721 ng/mL; Tmax [8]: 30 min; AUC(0-t) [8]: 0.018 ng·h/mL; Cmax [9]: 0.313 ng/mL; Tmax [9]: 30 min; AUC(0-t) [9]: 1.04 ng·h/mL; Cmax [10]: 0.171 ng/mL; Tmax [10]: 30 min; AUC(0-t) [10]: 0.17 ng·h/mL; Cmax [11]: 0.17 ± 0.105 ng/mL; Tmax [11]: 156 ± 216 min; AUC(0-t) [11]: 0.754 ± 0.794 ng·h/mL; Cmax [12]: 0.306 ng/mL; Tmax [12]: 60 min; AUC(0-t) [12]: 0.372 ng·h/mL; Cmax [13]: 0.0505 ng/mL; Tmax [13]: 480 min; AUC(0-t) [13]: 0.101 ng·h/mL; Cmax [14]: 0.163 ng/mL; Tmax [14]: 30 min; AUC(0-t) [14]: 1.9 ng·h/mL; Cmax [15]: 0.161 ng/mL; Tmax [15]: 60 min; AUC(0-t) [15]: 0.644 ng·h/mL
